“Also recorded” adds a separate entry of the source. Where two headings read alike, the source gives them in different places. No end group written: not given here.
Columns and labels:
[1] = system: cultured human keratinocytes; settings: in vitro, previously shown in U.S. Pat. Nos. 5,527,772, 5,840,690 and 6,066,618; cited from earlier work
mouse vaginal cells = experiment: tritiated thymidine incorporation into DNA of cultured mouse vaginal epithelial cells; type: cell-based, SKH-1 hairless mice
Protocol: The vaginas from five SKH-1 hairless mice were harvested, washed, and placed in trypsin 1× overnight. From each, the vaginal epithelium was peeled and rinsed in 0.02% EDTA solution and centrifuged to isolate the cells. The cells were rinsed in media, centrifuged, and plated into a 100 mm dish atop a layer of irradiated 3T3 cells containing media as is used for keratinocytes and described above. The cells were grown and passed into 24 well plates for tritiated thymidine incorporation as described above. Cells were treated with either a placebo vehicle or with 1×10^−7 M PTH(1-34) for 24 hours. The cells were harvested and the DNA was extracted and counted using a beta liquid scintillation counter. The amount of tritiated thymidine recovered in the DNA is a measure of DNA synthesis in the cells and is synonymous with cellular proliferative activity.

hPTH-2 receptor = hPTH-2 receptor (Homo sapiens, UniProt P49190); settings: cited from earlier work
Chain of hPTH-2 receptor (P49190 25-550): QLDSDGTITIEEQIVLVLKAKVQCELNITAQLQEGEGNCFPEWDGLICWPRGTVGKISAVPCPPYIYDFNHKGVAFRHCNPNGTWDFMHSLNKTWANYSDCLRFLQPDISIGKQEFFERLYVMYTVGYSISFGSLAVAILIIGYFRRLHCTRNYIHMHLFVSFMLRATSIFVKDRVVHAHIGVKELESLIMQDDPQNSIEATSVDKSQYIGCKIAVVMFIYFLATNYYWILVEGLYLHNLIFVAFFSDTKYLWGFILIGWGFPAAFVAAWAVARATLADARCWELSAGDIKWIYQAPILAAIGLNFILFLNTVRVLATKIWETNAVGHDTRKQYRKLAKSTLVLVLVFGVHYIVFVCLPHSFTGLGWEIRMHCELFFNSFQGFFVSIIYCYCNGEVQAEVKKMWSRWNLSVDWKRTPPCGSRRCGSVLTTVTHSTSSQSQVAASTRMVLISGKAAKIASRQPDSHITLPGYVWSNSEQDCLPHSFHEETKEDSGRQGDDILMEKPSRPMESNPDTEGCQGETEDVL

PTHPTHrP receptor [2] = target: T1, PTHPTHrP receptor (Homo sapiens, UniProt Q03431); settings: cited from earlier work
T1 sequence (Q03431 27-593): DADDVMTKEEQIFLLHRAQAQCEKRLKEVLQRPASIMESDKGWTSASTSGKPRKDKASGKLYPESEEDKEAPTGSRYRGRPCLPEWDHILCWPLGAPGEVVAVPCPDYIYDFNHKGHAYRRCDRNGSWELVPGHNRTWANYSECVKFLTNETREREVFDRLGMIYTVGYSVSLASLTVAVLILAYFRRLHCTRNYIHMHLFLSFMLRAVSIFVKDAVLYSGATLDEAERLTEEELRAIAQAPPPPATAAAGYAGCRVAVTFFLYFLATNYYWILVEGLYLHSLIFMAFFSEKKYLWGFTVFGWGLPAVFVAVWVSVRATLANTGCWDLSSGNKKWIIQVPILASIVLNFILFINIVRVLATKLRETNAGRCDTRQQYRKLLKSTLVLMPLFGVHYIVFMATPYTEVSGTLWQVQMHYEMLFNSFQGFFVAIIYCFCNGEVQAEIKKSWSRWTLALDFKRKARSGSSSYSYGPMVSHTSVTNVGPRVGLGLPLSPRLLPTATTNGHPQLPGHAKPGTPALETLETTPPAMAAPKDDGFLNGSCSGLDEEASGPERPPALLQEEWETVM

PTHPTHrP receptor [3] = target: T1, PTHPTHrP receptor; settings: cited from earlier work; remark: listed apart in the source

Substance	block of inhibition of proliferation or stimulation of differentiation by hPTH(1-34), hPTHrP(1-34), or 1,25(OH)2D3 [1]	also measured
hPTH(7-31) (LMHNLGKHLNSMERVEWLRKKLQDV; listed as Homo sapiens)	block the inhibition of proliferation or stimulation of differentiation	
hPTH(5-36) (IQLMHNLGKHLNSMERVEWLRKKLQDVHNFVA; listed as Homo sapiens)	block the inhibition of proliferation or stimulation of differentiation	
hPTHrP(7-31) (LLHDKGKSIQDLRRRFFLHHLIAEI; listed as Homo sapiens)	block the inhibition of proliferation or stimulation of differentiation	
[Nle^8,18,Tyr^34]bPTH(7-34),Amide (FXHNLGKHLSSXERVEWLRKKLQDVHNY; norleucine at 8,18; C-terminal amide; Bovine; VARIANT (2)..(12) Xaa = Nle) [[Nle^8,18, Tyr^34]bPTH (7-34)NH2]	block the inhibition of proliferation or stimulation of differentiation	
bPTHrP(5-36) (HQLLHDKGKSIQDLRRRFFLHHLIAEIHTAEI; listed as Homo sapiens) [printed only in b18]	block the inhibition of proliferation or stimulation of differentiation	
hPTH(1-34) (SVSEIQLMHNLGKHLNSMERVEWLRKKLQDVHNF; listed as Homo sapiens)		incorporation of tritiated thymidine into the DNA (DNA synthesis) (mouse vaginal cells; 1×10^−7 M for 24 hours, versus placebo vehicle, FIG. 1): increased; vaginal cell growth (mouse vaginal cells; conclusion from FIG. 1, mouse vaginal cells in vitro): can stimulate vaginal cell growth; also recorded: can stimulate vaginal cell-growth
hPTHrP(5-34)	block the inhibition of proliferation or stimulation of differentiation	
[Trp^23]hPTHrP(1-36) (AVSEHQLLHDKGKSIQDLRRRFWLHHLIAEIHTAEI; listed as Homo sapiens) [[Trp^23]hPTHrP (1-36)]		antagonist function at the PTH-2 receptor (hPTH-2 receptor): hPTH-2 receptor antagonist; antagonist function at the PTH-2 receptor (hPTH-2 receptor; listed as [Trp^23]PTHrP(1-36)): particularly potent antagonist
hPTHrP(15-34) (IQDLRRRFFLHHLIAEIHTA; listed as Homo sapiens)		block of binding of hPTH(1-34) or hPTHrP(1-34) to the PTHPTHrP receptor (PTHPTHrP receptor [2]): can block the binding
hPTH(5-34) (IQLMHNLGKHLNSMERVEWLRKKLQDVHNF; listed as Homo sapiens)	block the inhibition of proliferation or stimulation of differentiation	
[Leu^11,D-Trp^12]hPTHrP(7-34),Amide [[Leu^11,D-Trp^12]hPTHrP(7-34)NH2]		antagonist function at the hPTH/PTHrP receptor (PTHPTHrP receptor [3]): highly potent antagonist
hPTH(15-34) (LNSMERVEWLRKKLQDVHNF; listed as Homo sapiens)		block of binding of hPTH(1-34) or hPTHrP(1-34) to the PTHPTHrP receptor (PTHPTHrP receptor [2]): can block the binding
[Tyr^34]bPTH(7-34),Amide (FMHNLGKHLSSMERVEWLRKKLQDVHNY-NH2) [[Tyr^34]bPTH (7-34)NH2]	block the inhibition of proliferation or stimulation of differentiation	
